Measurements as given in ChEMBL document CHEMBL3286253, “Design, synthesis, and structure-activity relationship studies of novel thioether pleuromutilin derivatives as potent antibacterial agents” (J Med Chem, 2014).
In brackets after ≈: the same amount, converted by molar mass.

Assays:
Cytochrome P450 1A2 = biological target: T1, Cytochrome P450 1A2 (Homo sapiens, UniProt P05177); experiment: Inhibition of CYP1A2 in human liver microsomes using phenacetin as substrate after 15 mins by LC/MS/MS analysis
T1 sequence (P05177 whole entry): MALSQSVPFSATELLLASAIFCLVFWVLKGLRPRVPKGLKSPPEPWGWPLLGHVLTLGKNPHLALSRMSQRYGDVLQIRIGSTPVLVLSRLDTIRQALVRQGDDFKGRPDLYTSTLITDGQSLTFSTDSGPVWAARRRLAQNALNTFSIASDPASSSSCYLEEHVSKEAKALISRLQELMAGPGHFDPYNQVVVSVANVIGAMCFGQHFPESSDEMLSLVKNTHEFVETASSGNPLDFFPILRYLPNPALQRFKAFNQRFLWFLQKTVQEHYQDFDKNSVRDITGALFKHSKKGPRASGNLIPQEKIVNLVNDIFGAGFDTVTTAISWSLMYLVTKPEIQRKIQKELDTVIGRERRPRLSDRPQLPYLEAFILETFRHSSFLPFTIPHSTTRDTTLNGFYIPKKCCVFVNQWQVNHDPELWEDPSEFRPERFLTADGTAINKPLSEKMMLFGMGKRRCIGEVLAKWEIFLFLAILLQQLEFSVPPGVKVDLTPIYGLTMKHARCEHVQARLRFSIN

Cytochrome P450 2C19 = Cytochrome P450 2C19 (Homo sapiens, UniProt P33261); experiment: Inhibition of CYP2C19 in human liver microsomes using mephenytoin as substrate after 15 mins by LC/MS/MS analysis
Sequence of Cytochrome P450 2C19 (P33261 whole entry): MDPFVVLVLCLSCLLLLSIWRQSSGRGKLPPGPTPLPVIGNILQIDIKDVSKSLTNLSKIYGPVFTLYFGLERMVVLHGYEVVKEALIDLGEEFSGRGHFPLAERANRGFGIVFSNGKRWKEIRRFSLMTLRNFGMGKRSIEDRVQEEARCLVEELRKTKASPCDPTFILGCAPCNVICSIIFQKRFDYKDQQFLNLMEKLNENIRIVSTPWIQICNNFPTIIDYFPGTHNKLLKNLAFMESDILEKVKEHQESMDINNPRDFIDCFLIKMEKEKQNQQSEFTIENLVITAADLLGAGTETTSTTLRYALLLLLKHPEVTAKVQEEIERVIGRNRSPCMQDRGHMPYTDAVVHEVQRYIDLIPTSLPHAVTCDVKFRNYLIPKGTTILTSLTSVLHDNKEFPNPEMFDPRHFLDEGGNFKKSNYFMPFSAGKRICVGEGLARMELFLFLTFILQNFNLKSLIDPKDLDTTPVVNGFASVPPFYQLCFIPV

Cytochrome P450 2C9 = Cytochrome P450 2C9 (Homo sapiens, UniProt P11712); experiment: Inhibition of CYP2C9 in human liver microsomes using tolbutamide as substrate after 15 mins by LC/MS/MS analysis
Sequence of Cytochrome P450 2C9 (P11712 whole entry): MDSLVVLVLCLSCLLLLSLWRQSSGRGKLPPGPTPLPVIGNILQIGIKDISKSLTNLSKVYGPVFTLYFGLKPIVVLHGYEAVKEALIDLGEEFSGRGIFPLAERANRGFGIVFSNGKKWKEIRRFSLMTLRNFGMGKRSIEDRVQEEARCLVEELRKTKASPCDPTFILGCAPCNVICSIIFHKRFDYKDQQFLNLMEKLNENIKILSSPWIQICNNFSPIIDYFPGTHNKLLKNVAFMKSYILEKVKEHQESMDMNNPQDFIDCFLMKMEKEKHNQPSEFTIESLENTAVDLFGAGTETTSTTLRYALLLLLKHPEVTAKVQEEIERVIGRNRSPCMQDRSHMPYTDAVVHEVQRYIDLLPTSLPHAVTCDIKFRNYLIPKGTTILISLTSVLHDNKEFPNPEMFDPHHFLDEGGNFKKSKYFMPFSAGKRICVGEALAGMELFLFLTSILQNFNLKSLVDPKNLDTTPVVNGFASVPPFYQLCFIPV

Cytochrome P450 3A4 [1] = biological target: T2, Cytochrome P450 3A4 (Homo sapiens, UniProt P08684); experiment: Inhibition of CYP3A4 in human liver microsomes using midazolam as substrate after 15 mins by LC/MS/MS analysis
T2 sequence (P08684 whole entry): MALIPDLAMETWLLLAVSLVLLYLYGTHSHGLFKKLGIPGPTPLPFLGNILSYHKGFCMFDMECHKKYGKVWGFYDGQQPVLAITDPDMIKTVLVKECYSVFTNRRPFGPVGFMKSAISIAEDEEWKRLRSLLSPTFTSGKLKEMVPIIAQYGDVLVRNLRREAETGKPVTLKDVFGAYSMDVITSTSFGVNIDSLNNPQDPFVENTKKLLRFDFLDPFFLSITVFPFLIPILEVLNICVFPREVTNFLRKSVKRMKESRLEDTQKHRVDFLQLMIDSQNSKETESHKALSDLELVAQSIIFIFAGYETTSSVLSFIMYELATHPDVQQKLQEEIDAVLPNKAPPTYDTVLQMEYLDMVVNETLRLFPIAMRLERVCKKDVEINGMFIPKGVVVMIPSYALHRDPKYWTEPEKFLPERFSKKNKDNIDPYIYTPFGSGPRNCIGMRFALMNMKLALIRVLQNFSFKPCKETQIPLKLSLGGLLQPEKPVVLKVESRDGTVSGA

Staphylococcus aureus [2] = experiment: Antibacterial activity against methicillin-sensitive Staphylococcus aureus after 16 hrs by agar dilution method; type: functional
Cytochrome P450 2D6 = Cytochrome P450 2D6 (Homo sapiens, UniProt P10635); experiment: Inhibition of CYP2D6 in human liver microsomes using dextromethorphan as substrate after 15 mins by LC/MS/MS analysis
Sequence of Cytochrome P450 2D6 (P10635 whole entry): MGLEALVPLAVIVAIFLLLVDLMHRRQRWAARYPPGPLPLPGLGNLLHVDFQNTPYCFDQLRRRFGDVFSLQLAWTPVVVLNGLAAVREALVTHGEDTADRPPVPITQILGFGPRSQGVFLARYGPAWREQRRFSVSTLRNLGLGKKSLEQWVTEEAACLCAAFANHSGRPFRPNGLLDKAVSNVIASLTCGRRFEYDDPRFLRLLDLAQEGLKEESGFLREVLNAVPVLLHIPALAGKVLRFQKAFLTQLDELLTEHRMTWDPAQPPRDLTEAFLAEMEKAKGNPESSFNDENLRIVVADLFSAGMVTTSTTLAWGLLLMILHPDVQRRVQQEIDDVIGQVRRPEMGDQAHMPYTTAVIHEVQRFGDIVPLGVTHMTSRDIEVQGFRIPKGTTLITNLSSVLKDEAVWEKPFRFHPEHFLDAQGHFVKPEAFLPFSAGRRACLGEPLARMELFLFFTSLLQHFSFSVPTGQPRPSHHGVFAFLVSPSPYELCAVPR

[3] = Aqueous solubility of the compound in water at pH 7.4
Cytochrome P450 3A4 [4] = biological target: T2, Cytochrome P450 3A4; experiment: Inhibition of CYP3A4 in human liver microsomes using testosterone as substrate after 15 mins by LC/MS/MS analysis
[5] = test system: Staphylococcus epidermidis; experiment: Antibacterial activity against methicillin-resistant Staphylococcus epidermidis after 16 hrs by agar dilution method; type: functional
Staphylococcus aureus [6] = experiment: Antibacterial activity against Staphylococcus aureus […] after 16 hrs by agar dilution method; type: functional
[7] = test system: Staphylococcus epidermidis; experiment: Antibacterial activity against methicillin-sensitive Staphylococcus epidermidis after 16 hrs by agar dilution method; type: functional
Staphylococcus aureus [8] = experiment: Antibacterial activity against methicillin-resistant Staphylococcus aureus after 16 hrs by agar dilution method; type: functional
Streptococcus pneumoniae = experiment: Antibacterial activity against penicillin-resistant Streptococcus pneumoniae after 16 hrs by agar dilution method; type: functional
[9] = Mean residence time in Sprague-Dawley rat at 2 mg/kg, iv administered as cassette dosing; type: ADME, organism-based; set-up: dose 2 mg/kg, route intravenous; conditions: in vivo
[10] = Volume of distribution at steady state in Sprague-Dawley rat at 2 mg/kg, iv administered as cassette dosing; type: ADME, organism-based; set-up: dose 2 mg/kg, route intravenous; conditions: in vivo, read-out: Vdss
[11] = Elimination half life in Sprague-Dawley rat at 2 mg/kg, iv administered as cassette dosing; type: ADME, organism-based; set-up: dose 2 mg/kg, route intravenous; conditions: in vivo, read-out: beta t1/2 (converted)
Staphylococcus aureus [12] = experiment: Antibacterial activity against of methicillin-resistant Staphylococcus aureus ATCC 33591 infected in iv dosed neutropenic mouse administered 1 hr after infection measured after 24 hrs; type: functional
Staphylococcus aureus [13] = experiment: Antibacterial activity against clinical isolate of methicillin-sensitive Staphylococcus aureus infected in iv dosed mouse administered 1 hr after infection for 4 days; type: functional
Staphylococcus aureus [14] = experiment: Antibacterial activity against clinical isolate of methicillin-sensitive Staphylococcus aureus infected in iv dosed mouse assessed as host survival administered 1 hr after infection for 4 days; type: functional
Staphylococcus aureus [15] = experiment: Antibacterial activity against of methicillin-sensitive Staphylococcus aureus ATCC 19636 infected in iv dosed mouse assessed as host survival administered 1 hr after infection measured after 48 hrs; type: functional; conditions: ATCC 19636, iv
Staphylococcus aureus [16] = experiment: Antibacterial activity against of methicillin-sensitive Staphylococcus aureus ATCC 19636 infected in iv dosed mouse administered 1 hr after infection measured after 48 hrs; type: functional
[17] = AUC (0 to t) in Sprague-Dawley rat at 2 mg/kg, iv administered as cassette dosing; type: ADME, organism-based; set-up: dose 2 mg/kg, route intravenous; conditions: plasma
[18] = Clearance in Sprague-Dawley rat at 2 mg/kg, iv administered as cassette dosing; type: ADME, organism-based; set-up: dose 2 mg/kg, route intravenous; conditions: in vivo
Staphylococcus aureus [19] = experiment: Antibacterial activity against of methicillin-resistant Staphylococcus aureus ATCC 33591 infected in iv dosed neutropenic mouse assessed as host survival administered 1 hr after infection measured after 24 hrs; type: functional; conditions: ATCC 33591, iv
[20] = Volume of distribution at steady state in Sprague-Dawley rat at 10 mg/kg, iv; type: ADME, organism-based; set-up: dose 10 mg/kg, route intravenous; conditions: in vivo, read-out: Vdss
[21] = AUC (0 to t) in Sprague-Dawley rat at 10 mg/kg, iv; type: ADME, organism-based; set-up: dose 10 mg/kg, route intravenous; conditions: plasma
[22] = Mean residence time in Sprague-Dawley rat at 10 mg/kg, iv; type: ADME, organism-based; set-up: dose 10 mg/kg, route intravenous; conditions: in vivo
[23] = Clearance in Sprague-Dawley rat at 10 mg/kg, iv; type: ADME, organism-based; set-up: dose 10 mg/kg, route intravenous; conditions: in vivo
[24] = Elimination half life in Sprague-Dawley rat at 10 mg/kg, iv; type: ADME, organism-based; set-up: dose 10 mg/kg, route intravenous; conditions: in vivo, read-out: beta t1/2 (converted)
Rattus norvegicus = experiment: Tmax in Sprague-Dawley rat assessed as 14-O-(((5-hydroxymethylpyridin-3-yl)sulfanyl)acetyl)mutilin level at 10 mg/kg, iv; type: ADME, organism-based; set-up: dose 10 mg/kg, route intravenous; conditions: in vivo
[25] = Plasma concentration in Sprague-Dawley rat at 10 mg/kg, iv after 15 mins; type: ADME, organism-based; set-up: dose 10 mg/kg, route intravenous
[26] = Chemical stability of solid state of the compound assessed as compound remaining after 100 days by UV/HPLC analysis; type: physicochemical; conditions: read-out: Stability
[27] = Chemical stability of aqueous solution state of the compound assessed as compound remaining after 14 days by UV/HPLC analysis; type: physicochemical; conditions: read-out: Stability
[28] = Chemical stability of solid state of the compound assessed as compound remaining after 24 hrs by UV/HPLC analysis; type: physicochemical; conditions: read-out: Stability
[29] = Tmax in Sprague-Dawley rat at 10 mg/kg, iv; type: ADME, organism-based; set-up: dose 10 mg/kg, route intravenous; conditions: in vivo
[30] = Chemical stability of aqueous solution state of the compound assessed as compound remaining after 24 hrs by UV/HPLC analysis; type: physicochemical; conditions: read-out: Stability

Structure (SMILES)	IC50 (Cytochrome P450 1A2) [µM]	IC50 (Cytochrome P450 2C19) [µM]	IC50 (Cytochrome P450 2C9) [µM]	IC50 (Cytochrome P450 3A4 [1]) [nM]	MIC (Staphylococcus aureus [2]) [µg/mL]	IC50 (Cytochrome P450 2D6) [µM]	IC50 (Cytochrome P450 3A4 [4]) [nM]	MIC [5] [µg/mL]	MIC (Staphylococcus aureus [6]) [µg/mL]	MIC [7] [µg/mL]	MIC (Staphylococcus aureus [8]) [µg/mL]	MIC (Streptococcus pneumoniae) [µg/mL]	MRT [9] [h]	Vd [10] [L/kg]	half-life [11] [min]	MIC (Staphylococcus aureus [12]) [µg/mL]	MIC (Staphylococcus aureus [13]) [µg/mL]	ED50 (Staphylococcus aureus [14]) [mg/kg]	ED50 (Staphylococcus aureus [15]) [mg/kg]	MIC (Staphylococcus aureus [16]) [µg/mL]	further results
C=C[C@]1(C)C[C@@H](OC(=O)CSc2cncc(N)c2)[C@]2(C)[C@H](C)CC[C@]3(CCC(=O)[C@H]32)[C@@H](C)[C@@H]1O	> 25	15.5	> 25	135	0.063 (≈ 0.129 µM)	17.1	44.4	0.031 (≈ 0.0637 µM)	0.031 (≈ 0.0637 µM)	0.031 (≈ 0.0637 µM)	0.031 (≈ 0.0637 µM)	0.063 (≈ 0.129 µM)									solubility ([3]; buffer): Insoluble
C=C[C@]1(C)C[C@@H](OC(=O)CSc2cncc(NC(=O)CN3CCC(O)CC3)c2)[C@]2(C)[C@H](C)CC[C@]3(CCC(=O)[C@H]32)[C@@H](C)[C@@H]1O	> 25	> 25	> 25	1890	0.125 (≈ 0.199 µM)	11.2	1630	0.063 (≈ 0.1 µM)	0.031 (≈ 0.0494 µM)	0.125 (≈ 0.199 µM)	0.063 (≈ 0.1 µM)	0.063 (≈ 0.1 µM)	0.61	1.9	40.2	0.125 (≈ 0.199 µM)	0.063 (≈ 0.1 µM)	16.7	9.02	0.063 (≈ 0.1 µM)	AUC(0-t) [17]: 650 ng·h/mL; clearance [18]: 53.3 mL/min/kg; ED50 (Staphylococcus aureus [19]): 3.13 mg/kg
C=C[C@]1(C)C[C@@H](OC(=O)CS[C@@H]2CC[C@@H](N)C[C@H]2O)[C@]2(C)[C@H](C)CC[C@]3(CCC(=O)[C@H]32)[C@@H](C)[C@@H]1O [LEFAMULIN]	> 25	> 25	> 25	4650		> 25	4430						3.8	27.6	264				3.08	0.031 (≈ 0.0611 µM)	AUC(0-t) [17]: 275 ng·h/mL; clearance [18]: 122 mL/min/kg
C=C[C@]1(C)C[C@@H](OC(=O)CSc2cncc(CO)c2)[C@]2(C)[C@H](C)CC[C@]3(CCC(=O)[C@H]32)[C@@H](C)[C@@H]1O					0.063 (≈ 0.126 µM)			0.031 (≈ 0.0618 µM)	0.031 (≈ 0.0618 µM)	0.031 (≈ 0.0618 µM)	0.031 (≈ 0.0618 µM)	0.063 (≈ 0.126 µM)									Vd [20]: 1.56 L/kg; AUC(0-t) [21]: 3480 ng·h/mL; MRT [22]: 32.4 min; clearance [23]: 48 mL/min/kg; half-life [24]: 360 min
CC(=O)NC[C@H]1CN(c2ccc(N3CCOCC3)c(F)c2)C(=O)O1 [LINEZOLID]																1 (≈ 2.96 µM)	1 (≈ 2.96 µM)	15.6	7.89	1 (≈ 2.96 µM)	ED50 (Staphylococcus aureus [19]): 9.39 mg/kg
C=C[C@]1(C)C[C@@H](OC(=O)CSc2cncc(COP(=O)([O-])[O-])c2)[C@]2(C)[C@H](C)CC[C@]3(CCC(=O)[C@H]32)[C@@H](C)[C@@H]1O.[Na+].[Na+]																	> 32	29.2			Vd [20]: 3.26 L/kg; AUC(0-t) [21]: 1580 ng·h/mL; Tmax (Rattus norvegicus): < 5 min; concentration at […] [25]: 3 ng/mL; MRT [22]: 39 min; clearance [23]: 83.3 mL/min/kg; remaining at 2400 h [26]: 98.1%; remaining at 336 h [27]: 98.1%; half-life [24]: 382 min; remaining at 24 h [28]: 98.1%; solubility ([3]; water): 106 mg/mL; Tmax [29]: 4.8 min; remaining at 24 h [30]: 98.1%
